Test results from ChEMBL document CHEMBL3885861, “Open TG-GATES”.

Species: Rattus norvegicus
Assay: Open TG-GATES - Regimen: Single
Format: toxicity, organism-based, Sprague-Dawley
Parameters: regimen Single, gender Male, age 6 weeks
Conditions: in vivo, po, 100 mg/kg, route gavage, dose level Middle; for APTT / Bas / Eos / Fbg / Hb / Ht / Lym / MCH / MCHC / MCV / Mono / Neu / PT / Plat / RBC / Ret / WBC: tissue Blood; for KIDNEY_L / KIDNEY_R / KIDNEY_TOTAL: tissue Kidney; for LIVER: tissue Liver; for A/G / ALP / ALT / AST / BUN / CRE / Ca / Cl / DBIL / GLC / IP / K / LDH / Na / PL / RALB / TBIL / TC / TG / TP / gamma-GTP: tissue Plasma

Structure (SMILES): Cc1ccc(C)c(OCCCC(C)(C)C(=O)O)c1 [GEMFIBROZIL]
- TERMINAL_BW (3 h): 221.2 g
- APTT (3 h): 15.4 s
- Bas (3 h): 0%
- Eos (3 h): 0.8%
- Fbg (3 h): 283.2 mg/dL
- Hb (3 h): 13.4 g/dL
- Ht (3 h): 39.6%
- Lym (3 h): 78.2%
- MCH (3 h): 21.5 pg
- MCHC (3 h): 33.8%
- MCV (3 h): 63.4 fL
- Mono (3 h): 3.2%
- Neu (3 h): 17.4%
- PT (3 h): 12.4 s
- Plat (3 h): 116.9 x10_4/uL
- RBC (3 h): 624.4 x10_4/ul
- Ret (3 h): 7.2%
- WBC (3 h): 76.9 x10_2/uL
- KIDNEY_L (3 h): 1 g
- KIDNEY_R (3 h): 1 g
- KIDNEY_TOTAL (3 h): 1.9 g
- LIVER (3 h): 9.4 g
- A/G (3 h): 0.8
- ALP (3 h): 1811 IU/L
- ALT (3 h): 47.8 IU/L
- AST (3 h): 80.8 IU/L
- BUN (3 h): 11.8 mg/dL
- CRE (3 h): 0.2 mg/dL
- Ca (3 h): 11.4 mg/dL
- Cl (3 h): 104.8 meq/L
- DBIL (3 h): 0.068 mg/dL
- GLC (3 h): 177 mg/dL
- IP (3 h): 10.2 mg/dL
- K (3 h): 4.3 meq/L
- LDH (3 h): 68.8 IU/L
- Na (3 h): 140.6 meq/L
- PL (3 h): 174.2 mg/dL
- RALB (3 h): 2.5 g/dL
- TBIL (3 h): 0.072 mg/dL
- TC (3 h): 88 mg/dL
- TG (3 h): 155.6 mg/dL
- TP (3 h): 5.5 g/dL
- gamma-GTP (3 h): 1.2 IU/L
- TERMINAL_BW (6 h): 224.5 g
- APTT (6 h): 14.9 s
- Bas (6 h): 0%
- Eos (6 h): 0.8%
- Fbg (6 h): 297 mg/dL
- Hb (6 h): 13.9 g/dL
- Ht (6 h): 40.4%
- Lym (6 h): 76.2%
- MCH (6 h): 21.1 pg
- MCHC (6 h): 34.4%
- MCV (6 h): 61.2 fL
- Mono (6 h): 2.8%
- Neu (6 h): 19.4%
- PT (6 h): 12 s
- Plat (6 h): 124.5 x10_4/uL
- RBC (6 h): 659.6 x10_4/ul
- Ret (6 h): 7.6%
- WBC (6 h): 87.8 x10_2/uL
- KIDNEY_L (6 h): 0.9 g
- KIDNEY_R (6 h): 0.9 g
- KIDNEY_TOTAL (6 h): 1.9 g
- LIVER (6 h): 8.7 g
- A/G (6 h): 0.9
- ALP (6 h): 1550.4 IU/L
- ALT (6 h): 42.4 IU/L
- AST (6 h): 69.6 IU/L
- BUN (6 h): 9.8 mg/dL
- CRE (6 h): 0.2 mg/dL
- Ca (6 h): 11.3 mg/dL
- Cl (6 h): 107.2 meq/L
- DBIL (6 h): 0.072 mg/dL
- GLC (6 h): 181.2 mg/dL
- IP (6 h): 10.7 mg/dL
- K (6 h): 4.2 meq/L
- LDH (6 h): 61.2 IU/L
- Na (6 h): 142 meq/L
- PL (6 h): 158.2 mg/dL
- RALB (6 h): 2.7 g/dL
- TBIL (6 h): 0.056 mg/dL
- TC (6 h): 83.4 mg/dL
- TG (6 h): 89.2 mg/dL
- TP (6 h): 5.5 g/dL
- gamma-GTP (6 h): 1 IU/L
- TERMINAL_BW (9 h): 221.6 g
- APTT (9 h): 16 s
- Bas (9 h): 0%
- Eos (9 h): 0.8%
- Fbg (9 h): 274.2 mg/dL
- Hb (9 h): 13.8 g/dL
- Ht (9 h): 39.9%
- Lym (9 h): 68.2%
- MCH (9 h): 21.4 pg
- MCHC (9 h): 34.6%
- MCV (9 h): 62 fL
- Mono (9 h): 2.8%
- Neu (9 h): 27.4%
- PT (9 h): 12.1 s
- Plat (9 h): 125.1 x10_4/uL
- RBC (9 h): 643.8 x10_4/ul
- Ret (9 h): 7%
- WBC (9 h): 83.1 x10_2/uL
- KIDNEY_L (9 h): 1 g
- KIDNEY_R (9 h): 0.9 g
- KIDNEY_TOTAL (9 h): 1.9 g
- LIVER (9 h): 8 g
- A/G (9 h): 0.9
- ALP (9 h): 1612 IU/L
- ALT (9 h): 41.8 IU/L
- AST (9 h): 70 IU/L
- BUN (9 h): 10.8 mg/dL
- CRE (9 h): 0.2 mg/dL
- Ca (9 h): 11 mg/dL
- Cl (9 h): 106.8 meq/L
- DBIL (9 h): 0.082 mg/dL
- GLC (9 h): 186.8 mg/dL
- IP (9 h): 11 mg/dL
- K (9 h): 4.1 meq/L
- LDH (9 h): 53.4 IU/L
- Na (9 h): 142.8 meq/L
- PL (9 h): 131.2 mg/dL
- RALB (9 h): 2.6 g/dL
- TBIL (9 h): 0.054 mg/dL
- TC (9 h): 67.6 mg/dL
- TG (9 h): 59 mg/dL
- TP (9 h): 5.5 g/dL
- gamma-GTP (9 h): 1.2 IU/L
- TERMINAL_BW (24 h): 225.5 g
- APTT (24 h): 14.8 s
- Bas (24 h): 0%
- Eos (24 h): 0.6%
- Fbg (24 h): 269.6 mg/dL
- Hb (24 h): 13.8 g/dL
- Ht (24 h): 39.8%
- Lym (24 h): 83.4%
- MCH (24 h): 21.8 pg
- MCHC (24 h): 34.7%
- MCV (24 h): 62.9 fL
- Mono (24 h): 2.2%
- Neu (24 h): 12.8%
- PT (24 h): 12.3 s
- Plat (24 h): 115.1 x10_4/uL
- RBC (24 h): 633.8 x10_4/ul
- Ret (24 h): 6.7%
- WBC (24 h): 74 x10_2/uL
- KIDNEY_L (24 h): 0.9 g
- KIDNEY_R (24 h): 0.9 g
- KIDNEY_TOTAL (24 h): 1.8 g
- LIVER (24 h): 10.4 g
- A/G (24 h): 0.9
- ALP (24 h): 1796.8 IU/L
- ALT (24 h): 43.6 IU/L
- AST (24 h): 68.2 IU/L
- BUN (24 h): 15.8 mg/dL
- CRE (24 h): 0.2 mg/dL
- Ca (24 h): 11.3 mg/dL
- Cl (24 h): 105 meq/L
- DBIL (24 h): 0.072 mg/dL
- GLC (24 h): 196.8 mg/dL
- IP (24 h): 7.9 mg/dL
- K (24 h): 4.1 meq/L
- LDH (24 h): 56.4 IU/L
- Na (24 h): 141.6 meq/L
- PL (24 h): 125.2 mg/dL
- RALB (24 h): 2.7 g/dL
- TBIL (24 h): 0.04 mg/dL
- TC (24 h): 62.6 mg/dL
- TG (24 h): 69 mg/dL
- TP (24 h): 5.5 g/dL
- gamma-GTP (24 h): 1.2 IU/L
